Assay: Inhibitory activity against secretory Phospholipase A2 (s-PLA2) of Naja naja

IC50 [µM] | SMILES
1 | COc1ccc2nc(Oc3ccccc3)cc(CC(N)=O)c2c1 [2-(6-Methoxy-2-phenoxy-quinolin-4-yl)-acetamide]
10 | COc1ccc2nc(Oc3ccccc3)cc(C(N)=O)c2c1 [6-Methoxy-2-phenoxy-quinoline-4-carboxylic acid amide]

From BindingDB's records for doi:10.1016/s0960-894x(01)00229-3 (Peking University, 2001)
